Laboratory results as given in patent US20240174649A1, “CULLIN-RING E3 UBIQUITIN LIGASE 4 INHIBITOR COMPOUNDS AND METHODS OF THEIR USE” (ICAHN SCHOOL OF MEDICINE AT MOUNT SINAI, priority 2021, published 2024).

What was measured:
E3 CRL4^CRBN = E3 CRL4^CRBN (Homo sapiens (Human), UniProt Q13619); experiment: Lenalidomide-dependent ubiquitination of CK1α by CRL4^CRBN; format: biochemical; conditions: at 30 μM
Procedure: To prepare Flag-CK1α as a substrate for ubiquitination experiments described in FIGS. 2A-E, the expression vector (purchased from Addgene) was introduced to HEK-293T cells by transfection using Lipofectamine RNAIMAX (ThermoFisher) according to manufacturer's protocols. Cell extracts were prepared and the concentration of Flag-CK1α was determined using immunoblot analysis with purified GST-CK1α (Sigma) as a standard. Typically, 50-100 μl of extracts was used to attach to ˜15 μl of M2 beads (Sigma) at 4° C. for 2 hours. Unbound materials were removed by washing (first three times with a washing buffer containing 50 mM Tris-HCl, pH8.0, 1% Triton X-100, 0.5M NaCl, and then twice with buffer A plus 50 mM NaCl) and the resulting beads were used in the ubiquitination assay (15 μl). The concentration of Flag-CK1α was determined to be ˜100 nM.
Immobilized, Flag-CK1α-containing beads were initially incubated with a reaction mixture (10 μl) containing 50 mM Tris-HCl (pH7.4), 0.5 mM DTT, 0.1 mg/ml of BSA, 5 mM MgCl2, 100 nM CRL4^CRBN, 1 μM Lenalidomide (Selleckchem), 1 μM Fluorescein-Ub, 100 nM E1, and 1 μM UbcH5c. ATP (20 mM) was added last to initiate the reaction. The reaction was incubated on a thermomixer (1,300 rpm; Eppendorf) at 37° C. for 5 min. The resulting beads were then added with a second reaction mixture (5 μl) containing 50 mM Tris-HCl (pH7.4), 0.5 mM DTT, 0.1 mg/ml of BSA, 5 mM MgCl2, 4 μM I-Ub-Q31C/K48R, and 1 μM Cdc34b, in the presence or absence of E3 inhibitors as specified. The reaction was incubated on a thermomixer at 37° C. for times as indicated. The concentrations of enzymes, Ubs, and compounds stated above were adjusted based on a final volume of 15 μl. The beads were then washed using conditions as described above. Materials eluted from the beads were separated by 4-20% SDS-PAGE followed by detection with fluorescence scanning (Typhoon 9500) or immunoblot using anti-CK1α antibody (Abcam). […]

ROC1-CUL1 CTD [1] = target: T1, ROC1-CUL1 CTD (Homo sapiens (Human), UniProt Q13616); experiment: Ligand binding by MST; conditions: Table 5, MST; read-out: E3 binding Kd
Procedure: (§1) E3 ligase complex (˜2 nmol) was labeled with fluorescent dye using Monolith NT Protein Labeling Kit Red-NHS (Nanotemper) in the presence of 20 mM MES pH 6.0 and 150 mM NaCl. Excess dye was removed using the included gravity flow column and eluted in storage buffer containing 20 mM Tris-HCl, pH 7.4, 150 mM NaCl, and 10% glycerol. The fluorescent E3 complex (˜0.01-0.06 μM) was mixed with increasing amount of compound in a buffer (20 μl) that contains phosphate-buffered saline, 0.1% TWEEN-20 and 2% prionex. Following incubation at room temperature for 30 min, the reaction mixture loaded into premium coated capillaries and analyzed in the Monolith NT.115 machine (Nanotemper). Thermophoresis was recorded for each sample and binding curve was generated and Kd was calculated using the included software. For reactions where significant ligand specific fluorescence quenching occurred (verified by manufacturer's SDS Denaturation-test protocol), the initial fluorescence quenching data was used directly to calculate the binding curve and Kd.

ROC1-CUL1 = ROC1-CUL1 (Homo sapiens (Human), UniProt Q13616); experiment: Gel-based di-Ub synthesis; format: biochemical
Procedure: For the experiment shown in FIG. 7 and FIGS. 8A-B, the di-Ub synthesis reaction was carried out by preassembling the donor Ub mix. The donor Ub mixture (5 μl) contained 50 mM Tris HCl (pH 7.4), 5 mM MgCl2, 2 mM ATP, 0.5 mM DTT, 0.1 mg/mL BSA, 1 μM Ub-NC-I555, 0.1 μM E1, and 2 μM Cdc34b. The reaction was incubated for 5 min at 37° C. Compounds, in the amounts indicated, were added followed by the addition of ROC1-CUL1 (or related E3 subcomplex) in amounts as indicated and 10 μM PK-Ub (1-74) (as a receptor). The final volume was adjusted to 10 μl. The reaction was incubated for 10 min at 37° C.
For the experiments shown in FIG. 8C and FIG. 9, the reaction was assembled in a 10-μl mixture containing 50 mM Tris HCl (pH 7.4), 5 mM MgCl2, 0.5 mM DTT, 0.1 mg/mL BSA, 0.05 μM Ub-NC-I555, 2,5 μM PK-Ub (1-74), 0.1 μM E1, 1 μM Cdc34b, and 80 nM ROC1-CUL1 with or without compound. The reaction was initiated by the addition of 2 mM ATP. The products were separated by 4-20% SDS/PAGE and were visualized and quantified on a Typhoon FLA 9500 laser scanner (GE).

ROC1-CUL4A (full length) = ROC1-CUL4A (full length) (Homo sapiens (Human), UniProt Q13619); experiment: Ligand binding by MST
Procedure: as §1

cancer cells = experiment: Apoptosis, Annexin V flow cytometry; format: cell-based
Procedure: Cells (5×10^4) were seeded 24 hours before compound treatment. Compound was added to the culture media and cells were cultured with the compound for 48 hours. The treated cells were then transferred into 5 ml flow cytometry tubes and the well was washed once with PBS to collect any remaining cells. The cells were then pelleted at 500×g for 5 min with a Beckman CS-6KR centrifuge at 4° C. After removal of supernatant, the cells pellet was washed with Annexin V binding buffer (10 mM Hepes-NaOH, pH 7.4, 150 mM NaCl, 5 mM KCl, 1 mM MgCl2, and 1.8 mM CaCl2). Cells were pelleted once again and incubated in the dark with Annexin V-FITC (2 μg/ml) in binding buffer for 5 min then analyzed using LSRFortessa flow cytometer (BD).

E3 (CUL4) = E3 (CUL4) (Homo sapiens (Human), UniProt Q13619); experiment: E3 (CUL4) inhibition (Table 1); format: biochemical
Procedure: (§2) The reaction was incubated for 5 min at 37° C. […] The reaction was incubated for 5 min at room temperature. In the second step (chase), the completed Cdc34b-Ub thiol ester reaction mixture was combined with one third of the completed mono-ubiquitination mixture. The final volume was adjusted to 10 μl with a mix that contained 50 mM Tris-HCl (pH 7.4), 0.5 mM DTT, 0.1 mg/ml of BSA, 5 mM MgCl2, and 2 mM ATP. Compounds were added where indicated. The chase reaction was incubated for 10 min at 37° C. The reaction products were separated by 4-20% SDS-polyacrylamide gel electrophoresis. The reaction scheme was identical to the one described above for FIGS. 12A-B. […] The reaction products, separated by SDS-PAGE, were visualized and analyzed by phospho-imaging using Typhoon 9500 scanner.

ROC1-CUL4A = ROC1-CUL4A (Homo sapiens (Human), UniProt Q13619); experiment: 32P-Ub chain elongation by ROC1-CUL4A; format: biochemical; parameters: concentration or dose not given beside the values; conditions: relative to KH-4-43
Procedure: as §2

E3 (CUL1) = E3 (CUL1) (Homo sapiens (Human), UniProt Q13616); experiment: E3 (CUL1) inhibition (Table 1); format: biochemical
Procedure: The reaction mixture (15 μl) was assembled onto a 384-well microtiter plate. […] ATP (0.66 mM) was then added to the mix followed by a brief centrifugation to settle down the mixture. The resulting plate was incubated at 30° C. in the Synergy-H1 reader and the fluorescence signal was monitored. Ubiquitination was quantified based on the ratio of acceptor:donor fluorescence (excitation 515 nm; donor emission 570 nm, acceptor emission 670 nm).

ROC1-CUL1 CTD [2] = target: T1, ROC1-CUL1 CTD; experiment: FRET K48 di-Ub synthesis assay; format: biochemical; conditions: HTS screening conditions, read-out: inhibition of the reaction

T1 sequence (Q13616 411-776): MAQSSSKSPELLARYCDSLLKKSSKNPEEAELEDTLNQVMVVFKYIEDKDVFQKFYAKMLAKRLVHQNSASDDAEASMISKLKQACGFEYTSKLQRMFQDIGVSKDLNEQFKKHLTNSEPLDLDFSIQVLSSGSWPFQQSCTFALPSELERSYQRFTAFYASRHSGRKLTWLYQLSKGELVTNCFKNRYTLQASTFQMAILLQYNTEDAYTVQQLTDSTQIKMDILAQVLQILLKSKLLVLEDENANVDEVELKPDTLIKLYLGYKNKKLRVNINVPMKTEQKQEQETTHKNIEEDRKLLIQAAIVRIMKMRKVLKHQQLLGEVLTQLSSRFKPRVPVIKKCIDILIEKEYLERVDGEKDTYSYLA
T1 sequence (P62877 whole entry partner): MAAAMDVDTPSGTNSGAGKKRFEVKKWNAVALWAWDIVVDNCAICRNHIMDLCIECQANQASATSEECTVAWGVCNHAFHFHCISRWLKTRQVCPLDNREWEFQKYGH
Chain of E3 (CUL1) (Q13616 whole entry): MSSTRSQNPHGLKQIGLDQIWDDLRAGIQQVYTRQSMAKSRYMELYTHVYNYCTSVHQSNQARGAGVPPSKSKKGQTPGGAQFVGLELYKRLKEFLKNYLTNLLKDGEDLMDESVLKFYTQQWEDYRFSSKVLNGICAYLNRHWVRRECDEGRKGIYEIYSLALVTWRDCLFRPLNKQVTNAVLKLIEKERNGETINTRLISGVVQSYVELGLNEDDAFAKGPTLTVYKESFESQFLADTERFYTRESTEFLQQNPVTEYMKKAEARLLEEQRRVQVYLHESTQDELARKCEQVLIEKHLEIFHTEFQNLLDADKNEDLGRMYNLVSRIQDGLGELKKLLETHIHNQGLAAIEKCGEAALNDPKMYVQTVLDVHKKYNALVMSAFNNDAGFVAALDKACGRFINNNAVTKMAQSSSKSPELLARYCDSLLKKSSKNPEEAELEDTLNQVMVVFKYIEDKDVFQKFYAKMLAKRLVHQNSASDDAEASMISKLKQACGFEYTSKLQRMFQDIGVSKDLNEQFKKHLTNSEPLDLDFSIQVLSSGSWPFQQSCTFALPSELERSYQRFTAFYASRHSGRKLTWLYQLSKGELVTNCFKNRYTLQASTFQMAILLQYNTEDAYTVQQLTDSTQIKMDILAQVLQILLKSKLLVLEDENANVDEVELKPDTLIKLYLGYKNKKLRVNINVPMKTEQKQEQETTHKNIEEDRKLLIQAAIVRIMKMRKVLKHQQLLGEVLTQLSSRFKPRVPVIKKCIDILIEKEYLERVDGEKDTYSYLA
Chain of E3 (CUL1) (P62877 whole entry partner): as the sequence (P62877 whole entry partner) above
Chain of ROC1-CUL1 (Q13616 whole entry): as the sequence (Q13616 whole entry) above
Chain of ROC1-CUL1 (P62877 whole entry partner): as the sequence (P62877 whole entry partner) above
Chain of E3 (CUL4) (Q13619 whole entry): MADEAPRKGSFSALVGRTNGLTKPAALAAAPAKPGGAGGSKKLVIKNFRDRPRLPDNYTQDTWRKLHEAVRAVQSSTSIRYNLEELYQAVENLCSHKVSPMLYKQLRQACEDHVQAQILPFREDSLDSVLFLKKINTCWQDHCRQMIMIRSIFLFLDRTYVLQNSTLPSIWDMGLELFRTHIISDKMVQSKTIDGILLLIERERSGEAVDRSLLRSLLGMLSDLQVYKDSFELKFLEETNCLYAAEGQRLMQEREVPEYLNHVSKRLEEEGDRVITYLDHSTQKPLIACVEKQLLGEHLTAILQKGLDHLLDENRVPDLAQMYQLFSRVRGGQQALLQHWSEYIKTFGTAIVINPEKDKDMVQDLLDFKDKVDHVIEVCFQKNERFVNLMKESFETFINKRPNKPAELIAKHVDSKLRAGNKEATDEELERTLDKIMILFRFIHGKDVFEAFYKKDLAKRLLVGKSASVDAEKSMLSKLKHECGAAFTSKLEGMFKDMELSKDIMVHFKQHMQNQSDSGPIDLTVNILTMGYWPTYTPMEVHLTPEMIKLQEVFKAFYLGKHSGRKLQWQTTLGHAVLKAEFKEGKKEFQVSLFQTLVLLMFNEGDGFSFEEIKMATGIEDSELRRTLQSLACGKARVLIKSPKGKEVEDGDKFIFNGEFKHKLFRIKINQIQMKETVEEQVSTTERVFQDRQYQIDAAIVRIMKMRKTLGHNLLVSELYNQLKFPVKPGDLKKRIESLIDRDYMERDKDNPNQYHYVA
Chain of E3 (CUL4) (P62877 whole entry partner): as the sequence (P62877 whole entry partner) above
Chain of E3 CRL4^CRBN (Q13619 whole entry): as the sequence (Q13619 whole entry) above
Chain of E3 CRL4^CRBN (P62877 whole entry partner): as the sequence (P62877 whole entry partner) above
Chain of E3 CRL4^CRBN (Q16531 whole entry partner): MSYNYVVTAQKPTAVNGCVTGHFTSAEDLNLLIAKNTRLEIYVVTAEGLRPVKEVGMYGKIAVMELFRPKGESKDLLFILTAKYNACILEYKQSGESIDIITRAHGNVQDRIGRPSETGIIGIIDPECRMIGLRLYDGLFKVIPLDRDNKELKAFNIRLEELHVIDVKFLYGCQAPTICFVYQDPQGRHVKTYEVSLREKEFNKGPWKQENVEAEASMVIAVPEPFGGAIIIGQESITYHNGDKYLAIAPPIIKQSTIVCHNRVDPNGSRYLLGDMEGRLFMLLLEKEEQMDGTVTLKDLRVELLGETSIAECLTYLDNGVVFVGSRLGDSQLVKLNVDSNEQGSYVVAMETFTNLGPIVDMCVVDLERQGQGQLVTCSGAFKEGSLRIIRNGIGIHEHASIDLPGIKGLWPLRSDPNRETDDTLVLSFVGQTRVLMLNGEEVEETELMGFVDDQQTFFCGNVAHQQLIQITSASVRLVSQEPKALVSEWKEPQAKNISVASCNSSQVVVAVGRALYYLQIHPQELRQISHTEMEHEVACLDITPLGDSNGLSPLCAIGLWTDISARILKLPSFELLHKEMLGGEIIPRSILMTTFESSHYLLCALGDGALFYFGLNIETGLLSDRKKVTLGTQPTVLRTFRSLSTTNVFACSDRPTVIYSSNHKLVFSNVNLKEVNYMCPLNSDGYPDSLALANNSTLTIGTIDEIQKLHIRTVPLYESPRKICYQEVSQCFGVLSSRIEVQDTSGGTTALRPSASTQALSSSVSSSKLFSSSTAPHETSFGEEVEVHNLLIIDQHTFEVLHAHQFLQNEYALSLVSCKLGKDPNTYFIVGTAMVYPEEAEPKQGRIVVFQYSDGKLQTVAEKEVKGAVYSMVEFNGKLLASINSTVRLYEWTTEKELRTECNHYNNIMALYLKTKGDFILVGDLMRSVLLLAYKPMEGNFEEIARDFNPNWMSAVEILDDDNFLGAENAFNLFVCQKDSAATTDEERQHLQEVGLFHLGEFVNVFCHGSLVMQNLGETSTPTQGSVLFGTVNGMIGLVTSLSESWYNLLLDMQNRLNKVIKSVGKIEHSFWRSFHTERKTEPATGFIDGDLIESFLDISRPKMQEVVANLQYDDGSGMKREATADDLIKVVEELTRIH
Chain of E3 CRL4^CRBN (Q96SW2 whole entry partner): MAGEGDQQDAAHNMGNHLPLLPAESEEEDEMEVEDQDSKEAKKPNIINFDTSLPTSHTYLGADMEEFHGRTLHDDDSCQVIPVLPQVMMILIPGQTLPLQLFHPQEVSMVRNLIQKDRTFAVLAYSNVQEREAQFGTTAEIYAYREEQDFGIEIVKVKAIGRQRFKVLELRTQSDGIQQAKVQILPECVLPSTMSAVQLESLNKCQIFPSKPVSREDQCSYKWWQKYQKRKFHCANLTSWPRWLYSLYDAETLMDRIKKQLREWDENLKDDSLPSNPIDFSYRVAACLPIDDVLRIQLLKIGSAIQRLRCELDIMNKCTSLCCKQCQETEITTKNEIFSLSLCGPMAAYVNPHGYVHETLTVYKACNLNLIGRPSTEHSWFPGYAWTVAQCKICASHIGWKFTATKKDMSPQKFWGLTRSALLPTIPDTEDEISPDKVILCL
Chain of ROC1-CUL4A (Q13619 39-759): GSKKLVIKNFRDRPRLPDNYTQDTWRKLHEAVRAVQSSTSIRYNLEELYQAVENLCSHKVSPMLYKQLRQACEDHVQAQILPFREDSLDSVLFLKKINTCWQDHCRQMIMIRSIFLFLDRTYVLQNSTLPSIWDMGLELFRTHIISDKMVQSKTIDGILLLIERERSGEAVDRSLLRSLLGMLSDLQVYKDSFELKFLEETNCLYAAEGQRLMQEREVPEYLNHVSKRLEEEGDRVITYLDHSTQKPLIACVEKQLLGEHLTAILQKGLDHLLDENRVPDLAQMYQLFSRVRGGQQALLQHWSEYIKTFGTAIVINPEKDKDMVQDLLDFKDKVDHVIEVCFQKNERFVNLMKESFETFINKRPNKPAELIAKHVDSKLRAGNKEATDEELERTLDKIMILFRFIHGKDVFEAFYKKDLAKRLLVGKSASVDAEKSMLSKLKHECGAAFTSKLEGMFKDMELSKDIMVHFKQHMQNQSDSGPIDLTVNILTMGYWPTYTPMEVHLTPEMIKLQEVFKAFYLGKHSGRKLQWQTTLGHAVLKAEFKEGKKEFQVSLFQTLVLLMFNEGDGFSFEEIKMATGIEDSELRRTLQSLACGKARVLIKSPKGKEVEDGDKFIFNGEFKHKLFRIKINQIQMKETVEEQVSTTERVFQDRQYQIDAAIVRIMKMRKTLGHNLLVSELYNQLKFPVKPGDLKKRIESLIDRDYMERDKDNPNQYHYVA
Chain of ROC1-CUL4A (P62877 15-108 partner): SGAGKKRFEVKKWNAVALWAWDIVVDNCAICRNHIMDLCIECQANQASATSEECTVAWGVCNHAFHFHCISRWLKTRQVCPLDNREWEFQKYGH
Chain of ROC1-CUL4A (full length) (Q13619 39-759): as the sequence (Q13619 39-759) above
Chain of ROC1-CUL4A (full length) (P62877 15-108 partner): as the sequence (P62877 15-108 partner) above

Question: Which results are given for O=c1c(Oc2ccccc2)c(C(F)(F)F)oc2c(O)c(O)ccc12 [#33, 7,8-dihydroxy-3-phenoxy-2-(trifluoromethyl)-4H-chromen-4-one]?
Answer: inhibition of ubiquitination of CK1α (E3 CRL4^CRBN): Significant inhibitory effects; Kd (ROC1-CUL1 CTD [1]): 1840 nM; discharge of Cdc34-Ub and production of Ub2 by ROC1-CUL1 (ROC1-CUL1): showed inhibition

Question: For COc1ccc2c(=O)c(-c3cnn(-c4ccc(F)cc4)c3)c(C(F)(F)F)oc2c1OC [KH-3-141], which “E3 binding ROC1-CUL4A Kd” value (ROC1-CUL4A (full length)) is on record?
Answer: Its value is “No detectable binding”.

Question: What about the “Apoptosis EC50” value (cancer cells; Table 1) of the same compound?
Answer: Its value is “Inactive”.

Question: What about the “Apoptosis EC50” value (cancer cells; Table 6) of the same compound?
Answer: Its value is “Inactive”.

Question: What about the induction of apoptosis (cancer cells; at 30 μM) of the same compound?
Answer: Its induction of apoptosis is “unable to induce any detectable level of apoptosis”.

Question: And the “E3 (CUL4) Inhibition EC50” value (E3 (CUL4))?
Answer: The value was “Inactive”.

Question: What about the “E3 CRL4 Relative Inhibition” value (ROC1-CUL4A) of the same compound?
Answer: Its value is 0%.

Question: What about the “E3 (CUL1) Inhibition EC50” value (E3 (CUL1)) of the same compound?
Answer: Its value is “Inactive”.

Question: For Cc1ccc(C(=O)Nc2ccc(S(=O)(=O)O)c3cc(S(=O)(=O)O)cc(S(=O)(=O)O)c23)cc1NC(=O)c1cccc(NC(=O)Nc2cccc(C(=O)Nc3cc(C(=O)Nc4ccc(S(=O)(=O)O)c5cc(S(=O)(=O)O)cc(S(=O)(=O)O)c45)ccc3C)c2)c1 [Suramin, suramin], which inhibition at 0.8 µM (ROC1-CUL1 CTD [2]; 0.8 μM) is on record?
Answer: Its inhibition at 0.8 µM is 50%.

Question: What about the inhibition at 5 µM (ROC1-CUL1 CTD [2]; 5 μM) of the same compound?
Answer: Its inhibition at 5 µM is 100%.
